Calls of active or inactive are those of the source.

The target of assay [1] is 5-hydroxytryptamine receptor 2A (Mus musculus, UniProt P35363). It is filed as functional, cell-based.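 Note: CHO-K1 cells with tagged receptor and beta-arrestin; agonist potency measured as compound-induced activation of the receptor.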
The next assay has as its target Mu-type opioid receptor (Homo sapiens, UniProt P35372). It is filed as functional, cell-based.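 Note: U2OS cells with beta-arrestin recruitment to OPRM1 by beta-gal complementation.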
The target of assay [2] is Voltage-gated inwardly rectifying potassium channel KCNH2 (Homo sapiens, UniProt Q12809). The settings on record: Potency.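 Note: confirmatory quantitative high-throughput screen measuring inhibition of hERG channel activity.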
Assay [3] concerns the target T1, Polyadenylate-binding protein 1 (Homo sapiens, UniProt P11940). The assay is described as follows: MLLE binding blockers, Cy5 peptide tracer – biochemical, fluorescence polarization, Cy5-PAM2 peptide, secondary, miRNA deadenylation inhibitor project, dose response (AID 602260). It is filed as functional. Particulars: read-out: IC50_Mean. On the technique in general: Polarisation of emitted light reports the rotation of a fluorescent probe.

Assay [4] deals with T1, Polyadenylate-binding protein 1. The assay is described as follows: MLLE domain peptide-binding blockers, IC50 – biochemical, fluorescence polarization, FITC-PAM2 peptide, dose response (AID 602259). Particulars: read-out: IC50_Mean. Type of assay: functional.
In assay [5] the target is SWI/SNF-related matrix-associated actin-dependent regulator of chromatin subfamily A member 2 (Homo sapiens, UniProt P51531). The assay is described as follows: Luminescence-based cell-based high throughput dose response assay to identify activators of the function of SWI/SNF related, matrix associated, actin dependent regulator of chromatin, subfamily a, member 2 (SMARCA2, BRM). It is filed as functional.

Assay [6] can be described thus: Counterscreen for activators of the function of SWI/SNF related, matrix associated, actin dependent regulator of chromatin, subfamily a, member 2 (SMARCA2, BRM): Luminescence-based cell-based high throughput dose response assay to identify non-selective compounds using the VP16 reporter assay. Type of assay: functional. A general note: The purpose of a counterscreen is to sort out artefacts and off-target activity.

The next assay addresses T2, X-box-binding protein 1 (Homo sapiens, UniProt P17861).
T2 sequence (P17861 whole entry): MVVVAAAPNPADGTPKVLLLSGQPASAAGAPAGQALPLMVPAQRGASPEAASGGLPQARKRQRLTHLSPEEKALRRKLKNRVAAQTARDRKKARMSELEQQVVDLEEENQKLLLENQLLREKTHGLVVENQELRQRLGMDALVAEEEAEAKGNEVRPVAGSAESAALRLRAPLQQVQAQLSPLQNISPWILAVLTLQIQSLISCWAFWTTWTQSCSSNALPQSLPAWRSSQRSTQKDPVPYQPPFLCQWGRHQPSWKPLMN
Type of assay: functional, Cricetulus griseus.

Assay [7] concerns the target T3, Insulin-degrading enzyme (Homo sapiens, UniProt P14735).
T3 sequence (P14735 whole entry): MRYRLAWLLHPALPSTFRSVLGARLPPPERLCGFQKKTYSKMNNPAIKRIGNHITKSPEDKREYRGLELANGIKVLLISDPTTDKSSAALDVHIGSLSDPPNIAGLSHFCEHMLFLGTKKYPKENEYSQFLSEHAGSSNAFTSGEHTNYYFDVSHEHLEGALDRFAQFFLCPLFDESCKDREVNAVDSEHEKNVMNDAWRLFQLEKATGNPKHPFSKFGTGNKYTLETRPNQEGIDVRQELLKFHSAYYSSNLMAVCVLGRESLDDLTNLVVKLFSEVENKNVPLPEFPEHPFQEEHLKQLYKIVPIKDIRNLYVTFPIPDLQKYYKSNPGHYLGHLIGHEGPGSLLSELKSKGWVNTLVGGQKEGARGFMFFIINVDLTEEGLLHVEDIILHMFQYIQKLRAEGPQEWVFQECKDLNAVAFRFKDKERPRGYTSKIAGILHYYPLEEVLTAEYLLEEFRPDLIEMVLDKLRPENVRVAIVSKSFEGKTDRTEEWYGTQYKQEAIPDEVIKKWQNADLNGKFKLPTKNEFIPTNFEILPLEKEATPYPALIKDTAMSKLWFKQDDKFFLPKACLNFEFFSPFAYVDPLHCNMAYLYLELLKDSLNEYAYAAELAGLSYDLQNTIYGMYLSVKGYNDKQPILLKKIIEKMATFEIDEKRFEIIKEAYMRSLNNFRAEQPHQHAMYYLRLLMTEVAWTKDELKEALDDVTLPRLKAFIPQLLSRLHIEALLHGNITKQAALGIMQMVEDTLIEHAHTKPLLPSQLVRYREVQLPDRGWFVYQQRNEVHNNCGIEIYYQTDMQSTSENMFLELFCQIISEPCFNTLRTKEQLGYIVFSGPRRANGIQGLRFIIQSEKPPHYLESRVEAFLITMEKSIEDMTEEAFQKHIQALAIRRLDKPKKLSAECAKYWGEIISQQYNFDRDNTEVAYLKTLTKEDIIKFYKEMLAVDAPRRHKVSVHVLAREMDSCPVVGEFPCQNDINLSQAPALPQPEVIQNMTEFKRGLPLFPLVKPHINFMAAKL
The assay is described as follows: recombinant IDE activation, cell-free – biochemical, fluorescence polarization, counter-screen for IDE activator project, dose response (AID 588681).

For assay [8], the target named is Beta-lactamase (Pseudomonas aeruginosa, UniProt Q79MP6).
In assay [9] the target is Beta-lactamase (Salmonella choleraesuis (strain SC-B67), UniProt Q5J463).
For assay [10], the system named is HEK293. The assay is described as follows: membrane integrity loss in HEK cells – cell-based, fluorescence, cytotoxicity control for IDE activator project, dose response (AID 588440).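 Note: cytotoxicity by LDH release measuring loss of membrane integrity.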 Type of assay: functional. Particulars: Homo sapiens.
The test system of assay [11] is HEK293. The assay is described as follows: optical interference in Abeta FP readout, dose response, artefact control for IDE activator project, biochemical, fluorescence polarization (AID 588442). Particulars: Homo sapiens. Type of assay: functional, cell-based.
The target in assay [12] is T3, Insulin-degrading enzyme. The assay is described as follows: cellular IDE activation of Abeta substrate cleavage – fluorescence polarization, HEK cells, dose response (AID 588439). It is filed as functional, cell-based.
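Throughout, for Absolute IC50 (XBP1): confirmatory dose-response counter-screen serving a CHOP assay.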

T1 sequence (P11940 whole entry): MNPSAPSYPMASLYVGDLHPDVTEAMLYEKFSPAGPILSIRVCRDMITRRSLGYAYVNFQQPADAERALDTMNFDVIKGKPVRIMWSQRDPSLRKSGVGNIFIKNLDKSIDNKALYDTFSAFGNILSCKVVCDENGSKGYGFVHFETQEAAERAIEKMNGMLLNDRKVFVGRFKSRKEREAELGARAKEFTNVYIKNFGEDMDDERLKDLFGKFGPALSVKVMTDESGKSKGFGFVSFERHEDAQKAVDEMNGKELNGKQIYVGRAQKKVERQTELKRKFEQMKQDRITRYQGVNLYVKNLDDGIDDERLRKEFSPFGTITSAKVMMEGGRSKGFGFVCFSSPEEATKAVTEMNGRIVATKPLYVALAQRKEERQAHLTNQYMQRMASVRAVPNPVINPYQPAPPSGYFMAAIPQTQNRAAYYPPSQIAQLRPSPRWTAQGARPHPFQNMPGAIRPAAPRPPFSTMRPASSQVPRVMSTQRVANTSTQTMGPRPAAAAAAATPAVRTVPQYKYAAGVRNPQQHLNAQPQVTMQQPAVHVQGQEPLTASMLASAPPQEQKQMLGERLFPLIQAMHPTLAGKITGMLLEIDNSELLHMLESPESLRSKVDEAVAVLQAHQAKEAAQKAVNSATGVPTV
SWI/SNF-related matrix-associated actin-dependent regulator of chromatin subfamily A member 2, sequence (P51531 whole entry): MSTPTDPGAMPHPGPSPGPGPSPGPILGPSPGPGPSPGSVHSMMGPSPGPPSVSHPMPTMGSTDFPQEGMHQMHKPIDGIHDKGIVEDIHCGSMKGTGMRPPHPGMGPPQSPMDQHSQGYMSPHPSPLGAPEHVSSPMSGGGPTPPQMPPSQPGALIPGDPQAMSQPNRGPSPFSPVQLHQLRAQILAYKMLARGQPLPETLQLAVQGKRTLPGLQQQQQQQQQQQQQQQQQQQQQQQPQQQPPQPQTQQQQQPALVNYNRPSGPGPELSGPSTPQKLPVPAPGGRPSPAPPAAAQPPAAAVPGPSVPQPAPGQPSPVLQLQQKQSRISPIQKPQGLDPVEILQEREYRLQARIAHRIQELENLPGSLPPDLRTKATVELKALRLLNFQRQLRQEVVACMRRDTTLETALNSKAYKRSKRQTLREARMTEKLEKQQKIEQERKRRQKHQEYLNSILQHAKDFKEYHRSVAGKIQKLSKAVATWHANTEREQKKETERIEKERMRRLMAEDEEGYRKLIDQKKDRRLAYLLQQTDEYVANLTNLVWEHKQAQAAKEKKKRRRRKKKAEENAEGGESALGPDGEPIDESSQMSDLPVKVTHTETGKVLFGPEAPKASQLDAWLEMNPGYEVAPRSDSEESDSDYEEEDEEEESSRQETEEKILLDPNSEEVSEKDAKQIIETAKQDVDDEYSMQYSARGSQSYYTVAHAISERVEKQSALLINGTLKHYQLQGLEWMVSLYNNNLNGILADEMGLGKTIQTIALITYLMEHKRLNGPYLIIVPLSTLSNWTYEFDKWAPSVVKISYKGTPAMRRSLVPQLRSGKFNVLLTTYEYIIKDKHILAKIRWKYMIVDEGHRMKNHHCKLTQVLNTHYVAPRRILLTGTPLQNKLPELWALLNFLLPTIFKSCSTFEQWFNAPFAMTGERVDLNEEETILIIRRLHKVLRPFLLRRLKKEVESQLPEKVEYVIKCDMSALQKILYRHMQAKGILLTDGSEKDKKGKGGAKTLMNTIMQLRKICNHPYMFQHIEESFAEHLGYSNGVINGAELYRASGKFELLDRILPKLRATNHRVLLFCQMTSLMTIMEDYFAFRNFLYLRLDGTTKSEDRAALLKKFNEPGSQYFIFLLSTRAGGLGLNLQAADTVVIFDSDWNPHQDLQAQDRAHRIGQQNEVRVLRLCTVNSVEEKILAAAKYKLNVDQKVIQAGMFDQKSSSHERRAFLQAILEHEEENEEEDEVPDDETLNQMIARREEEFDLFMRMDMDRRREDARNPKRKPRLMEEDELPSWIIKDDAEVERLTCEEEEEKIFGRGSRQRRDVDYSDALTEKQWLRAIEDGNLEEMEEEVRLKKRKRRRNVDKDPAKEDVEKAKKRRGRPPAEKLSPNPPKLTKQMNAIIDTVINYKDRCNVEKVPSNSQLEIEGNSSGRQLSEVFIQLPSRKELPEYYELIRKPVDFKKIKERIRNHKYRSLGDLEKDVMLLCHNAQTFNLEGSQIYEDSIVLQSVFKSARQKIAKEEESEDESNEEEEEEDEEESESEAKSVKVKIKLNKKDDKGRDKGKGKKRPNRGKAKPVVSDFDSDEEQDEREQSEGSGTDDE
Beta-lactamase (Salmonella choleraesuis (strain SC-B67), UniProt Q5J463), sequence (Q5J463 whole entry): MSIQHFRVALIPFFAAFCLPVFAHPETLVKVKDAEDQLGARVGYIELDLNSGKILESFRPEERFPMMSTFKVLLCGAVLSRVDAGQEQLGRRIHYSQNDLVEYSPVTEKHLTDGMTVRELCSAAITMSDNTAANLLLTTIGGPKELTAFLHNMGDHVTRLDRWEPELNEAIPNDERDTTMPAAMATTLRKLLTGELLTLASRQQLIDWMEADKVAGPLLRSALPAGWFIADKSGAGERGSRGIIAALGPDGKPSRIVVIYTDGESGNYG
Mu-type opioid receptor, sequence (P35372 whole entry): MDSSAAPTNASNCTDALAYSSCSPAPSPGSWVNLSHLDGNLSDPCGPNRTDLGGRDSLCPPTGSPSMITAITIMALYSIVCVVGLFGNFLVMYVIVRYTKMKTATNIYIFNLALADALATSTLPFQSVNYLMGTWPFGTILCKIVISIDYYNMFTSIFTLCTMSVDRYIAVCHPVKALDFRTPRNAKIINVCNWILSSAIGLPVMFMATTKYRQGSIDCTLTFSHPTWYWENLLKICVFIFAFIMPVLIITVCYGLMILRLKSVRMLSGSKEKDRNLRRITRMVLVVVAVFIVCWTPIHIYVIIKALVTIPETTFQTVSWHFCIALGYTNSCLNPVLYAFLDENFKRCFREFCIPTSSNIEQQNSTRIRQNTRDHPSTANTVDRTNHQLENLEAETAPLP
Voltage-gated inwardly rectifying potassium channel KCNH2, sequence (Q12809 whole entry): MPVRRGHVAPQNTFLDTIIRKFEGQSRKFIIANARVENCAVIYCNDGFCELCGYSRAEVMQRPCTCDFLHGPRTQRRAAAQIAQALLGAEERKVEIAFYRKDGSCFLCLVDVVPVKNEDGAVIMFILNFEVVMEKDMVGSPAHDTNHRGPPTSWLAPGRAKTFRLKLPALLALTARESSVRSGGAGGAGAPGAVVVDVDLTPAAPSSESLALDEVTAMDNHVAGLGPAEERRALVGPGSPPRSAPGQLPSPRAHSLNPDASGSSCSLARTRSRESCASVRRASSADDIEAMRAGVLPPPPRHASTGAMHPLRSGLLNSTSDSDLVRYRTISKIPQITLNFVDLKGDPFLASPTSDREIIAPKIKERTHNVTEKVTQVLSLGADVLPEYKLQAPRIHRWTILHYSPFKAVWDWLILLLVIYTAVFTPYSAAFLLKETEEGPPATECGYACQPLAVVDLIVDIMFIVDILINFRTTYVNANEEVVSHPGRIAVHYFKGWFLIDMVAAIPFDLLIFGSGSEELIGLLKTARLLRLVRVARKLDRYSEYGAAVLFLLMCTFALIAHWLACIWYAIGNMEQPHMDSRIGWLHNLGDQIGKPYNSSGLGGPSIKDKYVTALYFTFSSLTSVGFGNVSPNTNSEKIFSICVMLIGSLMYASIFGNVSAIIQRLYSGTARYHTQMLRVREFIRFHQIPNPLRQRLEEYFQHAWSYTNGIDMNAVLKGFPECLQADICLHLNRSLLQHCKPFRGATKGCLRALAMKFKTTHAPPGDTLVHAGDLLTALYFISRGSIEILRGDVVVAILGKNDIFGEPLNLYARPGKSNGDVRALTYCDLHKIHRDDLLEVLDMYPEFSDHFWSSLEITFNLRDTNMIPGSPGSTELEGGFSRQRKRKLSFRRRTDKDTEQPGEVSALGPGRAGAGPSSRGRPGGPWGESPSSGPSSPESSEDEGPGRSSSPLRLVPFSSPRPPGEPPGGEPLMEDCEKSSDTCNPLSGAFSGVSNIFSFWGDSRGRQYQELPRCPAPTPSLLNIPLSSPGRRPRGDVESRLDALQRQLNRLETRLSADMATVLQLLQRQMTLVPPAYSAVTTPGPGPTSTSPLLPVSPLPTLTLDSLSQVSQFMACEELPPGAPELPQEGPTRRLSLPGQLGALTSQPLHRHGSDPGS
5-hydroxytryptamine receptor 2A, sequence (P35363 whole entry): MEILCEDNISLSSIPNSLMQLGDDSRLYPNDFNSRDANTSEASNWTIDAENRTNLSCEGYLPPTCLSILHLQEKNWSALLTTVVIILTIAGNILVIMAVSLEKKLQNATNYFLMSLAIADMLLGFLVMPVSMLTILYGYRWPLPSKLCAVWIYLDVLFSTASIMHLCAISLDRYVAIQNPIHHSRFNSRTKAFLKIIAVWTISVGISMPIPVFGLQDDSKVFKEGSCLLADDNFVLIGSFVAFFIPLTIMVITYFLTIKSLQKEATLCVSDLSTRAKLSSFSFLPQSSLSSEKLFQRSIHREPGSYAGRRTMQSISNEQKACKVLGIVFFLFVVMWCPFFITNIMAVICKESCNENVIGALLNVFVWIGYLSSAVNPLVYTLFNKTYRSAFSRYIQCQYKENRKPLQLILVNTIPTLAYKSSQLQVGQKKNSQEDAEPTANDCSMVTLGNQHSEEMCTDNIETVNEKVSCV
Beta-lactamase (Pseudomonas aeruginosa, UniProt Q79MP6), sequence (Q79MP6 whole entry): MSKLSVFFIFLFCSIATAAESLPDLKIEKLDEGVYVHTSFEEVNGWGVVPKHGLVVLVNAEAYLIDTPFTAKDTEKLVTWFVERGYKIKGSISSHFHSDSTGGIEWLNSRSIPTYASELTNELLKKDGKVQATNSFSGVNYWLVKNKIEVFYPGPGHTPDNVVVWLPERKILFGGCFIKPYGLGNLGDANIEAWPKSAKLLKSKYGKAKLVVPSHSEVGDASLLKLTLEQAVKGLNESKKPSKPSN

For orientation: EC50 means the concentration needed to bring the measured effect to its halfway point. As a reminder, the AC50 is the concentration giving half of the maximal activity seen. Regarding `CN1CCc2cc(O)c(O)cc2C(c2ccccc2)C1` (centres undefined), the EC50 was 1.36 µM (active) in assay [1] and 92.5 µM (inactive) on Mu-type opioid receptor. In addition, in [2], the AC50 was 35.5 µM (inconclusive).
Regarding `COc1ccc2c3c(cccc13)C(=O)N(O)C2=O`, the IC50 in [3] is > 66 µM (inactive); in assay [4], 35.2 µM (inactive). Also, the EC50 is 26.4 µM (inactive) in assay [5] and > 91.2 µM (inactive) in assay [6]. The “Absolute IC50 (XBP1)” value at X-box-binding protein 1 was 10 µM.
In the case of `N#CC(C#N)=C1C=C2C=C(N3CCCCCC3)CCC2CC1` (centres undefined), the EC50 on Insulin-degrading enzyme [7], in the assay with HEK293 [11] and at Insulin-degrading enzyme [12] was > 54.7 µM (inactive) each time. The figures for the IC50 on Beta-lactamase [8], on Beta-lactamase [9] and in the assay on HEK293 [10] were 2.78 µM (active), 1.04 µM (active) and > 89.1 µM (inactive), respectively.

For the origin of these results see ChEMBL document CHEMBL1201862, “PubChem BioAssay data set” (2004).
